Patent US11116726B2, “Echinomycin formulation, method of making and method of use thereof” (CHILDREN'S RESEARCH INSTITUTE, CHILDREN'S NATIONAL MEDICAL …, priority 2015, dated 2021)

Key:
SUM159 cells = experiment: MTT cell viability assay, SUM 159; type: cell-based; conditions: Homo sapiens, 48 hrs, read-out: IC50 (number of live cells)
Procedure: (§1) FIG. 9. Echinomycin reduced the number of live breast cancer cells in vitro. Breast cancer cells with high (SUM 159) or low (MCF7) levels of HIF-1α were treated with various concentrations of echinomycin in vitro. The correlation between echinomycin concentration and relative proportions of surviving cells after co-culturing with echinomycin is shown. SUM 159 cells with high HIF-1α are more sensitive to echinomycin than MCF7, which express less HIF-1α.
(§2) To better understand the importance of high HIF-1α expression in breast cancer cells, the ability of echinomycin to reduce survival of breast cancer cells was tested in two breast cancer cell lines, MCF7 and SUM 159. More specifically, MCF7 and SUM 159 were treated with different concentrations of echinomycin for 48 hrs, followed by MTT assays to measure cell viability thereafter.

[1] = Plasma pharmacokinetics by mass spectrometry after single i.v. injection; type: in vivo, mice; conditions: 0.1 mg/kg single i.v.
Procedure: FIG. 5. Comparison of pharmacokinetics for liposomal vs. free echinomycin. Serum plasma levels of echinomycin detected by MS following single dose i.v. administration of 0.1 mg/kg liposomal echinomycin or free echinomycin
PEG shields liposomes from rapid uptake by the RES and provides steric stabilization to the liposome particles. To measure the prolonged circulation of liposomal echinomycin in the bloodstream compared to free echinomycin, the pharmacokinetics of both formulations were evaluated by detecting echinomycin levels in the plasma by mass spectrometry following single i.v. injections of 0.1 mg/kg of liposomal echinomycin or free echinomycin in mice (FIG. 5).

[2] = cited from earlier work
human ETP-ALL-1 cells = experiment: ETP-ALL xenograft model, human CD45+ cells in blood by FACS; type: in vivo, NSG mice; conditions: echinomycin in PBS 0.1 mg/kg x15 doses; Lipo-EM 0.35 mg/kg x10 doses; blood days 34, 50, 65
Procedure: FIG. 8. Liposomal echinomycin eliminates human ETP-ALL cells in a xenograft mouse model. (Panel A) Dosing regimen of liposomal echinomycin treatment for ETP-ALL humanized mice for data in panel B. Day 0 indicates day of transplantation with human ETP-ALL-1 cells. Green arrows represent one individual liposomal echinomycin injection (0.35 mg/kg/injection via i.v.). Red arrows indicate blood tests. (Panel B) NSG mice with 1.3 Gys irradiated were given i.v. injection of 1×10^6 human ETP-ALL-1 cells. Human CD45^+ cells in PBMC of recipients were detected by FACS analysis at day 34 after transplantation. The percentage of human CD45^+ in PBMC of recipient mice before treatment (Day 34) and after treatment (Day 42, 48, 56, and 64) of mice (vehicle and liposomal echinomycin treatment) was analyzed by FACS analysis. […] The percentage of human CD45^+ in PBMC of recipients after echinomycin treatment (Day 34, 50, and 65) of mice was analyzed by FACS analysis.
To test whether administration of liposomal echinomycin (Lipo-EM) could eliminate human ETP-ALL cells in vivo, Lipo-EM was administered to xenografted ETP-ALL NSG mice according to the dosing schedule outlined in FIG. 8, panel A. Briefly, 1×10^6 ETP ALL-1 cells were transplanted via i.v. injection into 1.3 Gys irradiated NSG mice. […] The percentage of human ETP ALL-1 cells was monitored after treatment. […]

MCF7 cells = experiment: MTT cell viability assay, MCF7; type: cell-based, human; conditions: 48 hrs, compared with SUM159
Procedure: as §1, §2

[3] = Intravenous tolerability / LD50 in mice; conditions: mouse, in vivo
[4] = Echinomycin concentration in SUM 159 breast tumor tissue after single i.v. injection; type: in vivo, NSG mice; conditions: 0.1 mg/kg single i.v., SUM 159 tumor
Procedure: FIG. 6. Accumulation of Echinomycin in tumor. Concentration of echinomycin in breast tumor SUM 159 following single dose i.v. injection (0.1 mg/kg) of liposomal and conventionally formulated echinomycin. n=3/time-point.
In contrast, administration of liposomal echinomycin (Lipo-EM) at the same dose of 0.1 mg/kg achieved a tissue concentration >5 ng/g, which was prolonged for more than 10 hrs following administration (FIG. 6). More importantly, peak drug levels in the liposomal echinomycin-treated group were approximately 6-fold higher than those treated with free echinomycin.

[5] = test system: SUM159 breast cancer cells; experiment: SUM159 breast cancer xenograft efficacy; type: in vivo, NSG mice; conditions: 0.1 mg/kg i.v. once every 3 days, 6 doses
Procedure: FIG. 11. Therapeutic effect of liposomal echinomycin on breast cancer in vivo. (Panel A) Female NSG mice were xenografted with human SUM159 breast cancer cells and treated with free echinomycin or vehicle (n=10 per group). Mice received 0.1 mg/kg of free echinomycin or vehicle via i.v. injection once every 3 days starting on day 28 for a total of 6 doses. Growth kinetics of SUM159 are shown. (Panel B) Female NSG mice were xenografted with SUM159 breast cancer cells and treated with liposomal echinomycin or vehicle (n=5 per group). The growth kinetics of SUM159 in recipient mice treated with vehicle and liposomal echinomycin are shown. Mice received 0.35 mg/kg of liposomal echinomycin or vehicle by i.v. injection on days 9, 11, 13, 25 and 27. Average tumor volume was recorded throughout the experiment. Error bars represent ±SEM. Individual treatments and dosage are denoted by asterisks. (Panel C) Mice were euthanized, and tumors were dissected and photographed. […] Weight is expressed as average weight ±s.d., P value was calculated by t test.
To test the therapeutic efficacy of free echinomycin (in PBS), Lipo-EM, and vehicle in breast cancer cells in vivo, SUM159 cells were xenografted in the mammary fat pad of NOD-SCID mice. […] In addition, Growth kinetics of the transplanted tumors were measured by volume (FIG. 11, panel B) and by weight (FIG. 11, panel C and panel D). […]

[6] = Liposomal echinomycin toxicity in mice (body weight, survival); type: in vivo, NSG mice; conditions: 1 mg/kg single i.v.
Procedure: FIG. 4. Comparison of toxicity and efficacy for liposomal vs. free echinomycin. (Panel A) Body weight change in female NSG mice receiving a therapeutic cycle of liposomal echinomycin, PBS echinomycin (20% DMSO in PBS), or equivalent dosage of empty liposomal vehicle. Mice were treated with 250 μg/kg of liposomal (n=7) or free (n=7) echinomycin, or vehicle equivalent (n=4), by i.v. once every other day for a total of 3 doses). (Panel B) Survival of NSG mice administered single i.v. injection of 1 mg/kg liposomal or free echinomycin, or equivalent dosage of empty liposomal vehicle.
To test the toxicity of liposomal echinomycin in mice, a therapeutic cycle of echinomycin was administered at a dose of 250 μg/kg, (liposomal-formulated, non-liposomal-formulated, or equivalent dosage of empty liposomal vehicle) by i.v. injection, every other day for a total of 3 doses. Body weights of the mice were monitored throughout this period.

SMILES: CS[C@H]1SC[C@H]2C(=O)N(C)[C@@H](C(C)C)C(=O)OC[C@@H](NC(=O)c3cnc4ccccc4n3)C(=O)N[C@@H](C)C(=O)N(C)[C@@H]1C(=O)N(C)[C@@H](C(C)C)C(=O)OC[C@@H](NC(=O)c1cnc3ccccc3n1)C(=O)N[C@@H](C)C(=O)N2C [free echinomycin, Echinomycin]
- IC50 (SUM159 cells): 1 nM
- time point at which plasma concentration >1 ng/ml is achieved (only) [1]: 15 min
- solubility in ethanol, alkalis, ketones, acetic acid and chloroform [2]: soluble
- solubility in water ([2]; water): insoluble
- growth of ETP-ALL-1 cells in recipients (comparison study) (human ETP-ALL-1 cells): did inhibit the growth rate of ETP-ALL-1 cells
- sensitivity to echinomycin (MCF7 cells): less sensitive
- LD50 [3]: 0.629 mg/kg
- time point at which tumor concentration >5 ng/g is achieved (only) [4]: 2 h
- tumor size vs vehicle control [5]: no significant differences in tumor size
- survival (in words) [6]: died within a week
